Reference: paper PMC11882969 (Nature Communications, 2025)
Several values for one entry are separate records, joined by “and”; a condition that tells them apart may be missing. Equal values may be shown once. Read-outs that look alike come from different tables or passages of the source.

Target: hCB1 (Homo sapiens, UniProt P21554)
Assay: bioSensAll ebBRET signaling profiling, hCB1
Assay type: cell-based
Design: host or cells: HEK293SL cells, transient PEI transfection
Settings: for Gi1 hCB1 response: Gi1 biosensor; for Gi1 hCB1 / GoB hCB1: single replicate values, FigS6a; for Emax [95% CI]: normalized to CP-55,940; for EC50: read-out: EC50 [95% CI]

Chain of hCB1 (P21554 whole entry): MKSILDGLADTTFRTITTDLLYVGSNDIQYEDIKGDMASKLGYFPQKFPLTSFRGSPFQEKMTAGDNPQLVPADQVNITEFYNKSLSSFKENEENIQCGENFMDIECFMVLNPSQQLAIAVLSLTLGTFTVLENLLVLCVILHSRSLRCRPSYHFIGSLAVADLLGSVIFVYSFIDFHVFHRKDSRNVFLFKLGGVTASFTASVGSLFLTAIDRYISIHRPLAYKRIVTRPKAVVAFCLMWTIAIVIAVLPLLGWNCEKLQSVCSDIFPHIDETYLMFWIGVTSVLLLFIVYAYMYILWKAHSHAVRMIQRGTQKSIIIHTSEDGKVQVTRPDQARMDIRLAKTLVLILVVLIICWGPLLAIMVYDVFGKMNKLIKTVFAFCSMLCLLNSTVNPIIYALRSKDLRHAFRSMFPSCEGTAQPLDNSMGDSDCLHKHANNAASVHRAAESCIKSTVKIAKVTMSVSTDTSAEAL

In the case of `Cc1cc(C(=O)N2CC3(CCC3)[C@H]2[C@H]2CCCO2)nn1-c1cccc(C(F)(F)F)c1` [‘1651], the “Gi1 hCB1 response” value (Log [Compound] (M) -4.22186) is reported as 137.59, the “Gi1 hCB1 response” value (Log [Compound] (M) -4.63927) is reported as 96.9225 and the “Gi1 hCB1 response” value (Log [Compound] (M) -5.47381) is reported as 59.4112. For the same molecule, the “Gi1 hCB1 response” value (Log [Compound] (M) -5.89285) was 34.5455, the “Gi1 hCB1 response” value (Log [Compound] (M) -6.31878) was 22.4595 and the “Gi1 hCB1 response” value (Log [Compound] (M) -6.72585) was 13.9098. For the same molecule, the “Gi1 hCB1 response” value (Log [Compound] (M) -7.14267) was 3.39, the “Gi1 hCB1 response” value (Log [Compound] (M) -7.55284) was 4.644 and the “Gi1 hCB1 response” value (Log [Compound] (M) -8) was -4.488. For the same molecule, the “Gi1 hCB1 response” value (Log [Compound] (M) -8.22186) was -3.346, the “Gi1 hCB1 response” value (Log [Compound] (M) -8.39794) was -8.628 and the “Gi1 hCB1 response” value (Log [Compound] (M) -8.68787) was -2.138. The “Gi1 hCB1 response” value (Log [Compound] (M) -9.15521) was 13.7307, the “Gi1 hCB1 response” value (Log [Compound] (M) -9.61989) was 0.5704 and the “Gi1 hCB1 response” value (Log [Compound] (M) -10.0969) was -10.7993. The “Gi1 hCB1 response” value (Log [Compound] (M) -10.5529) was 1.622, the “Gi1 hCB1 response” value (Log [Compound] (M) -11.0177) was 3.525 and the “Gi1 hCB1 response” value (Log [Compound] (M) -11.4949) was -1.466. For the same molecule, the “Gi1 hCB1 response” value (Log [Compound] (M) -11.9208) was -11.3141, the “Gi1 hCB1 response” value (Log [Compound] (M) -12.3979) was -0.1682 and the “Gi1 hCB1 response” value (Log [Compound] (M) -12.8861) was 6.054. The “Gi1 hCB1 response” value (Log [Compound] (M) -13, individual replicate values) was -5.092 and 7.285, the “Gi1 hCB1” value (Log [Compound] (M) -4.22186) was 86.9769 and the “GoB hCB1” value (Log [Compound] (M) -4.22186) was 103.232. For the same molecule, the “Gi1 hCB1” value (Log [Compound] (M) -4.63927) was 76.9098, the “GoB hCB1” value (Log [Compound] (M) -4.63927) was 73.1818 and the “Gi1 hCB1” value (Log [Compound] (M) -5.05788) was 64.2374. For the same molecule, the “GoB hCB1” value (Log [Compound] (M) -5.05788) was 61.4566, the “Gi1 hCB1” value (Log [Compound] (M) -5.47381) was 51.5496 and the “GoB hCB1” value (Log [Compound] (M) -5.47381) was 47.4476. For the same molecule, the “Gi1 hCB1” value (Log [Compound] (M) -5.89285) was 27.4072, the “GoB hCB1” value (Log [Compound] (M) -5.89285) was 30.9928 and the “Gi1 hCB1” value (Log [Compound] (M) -6.31878) was 15.521. For the same molecule, the “GoB hCB1” value (Log [Compound] (M) -6.31878) was 20.7963, the “Gi1 hCB1” value (Log [Compound] (M) -6.72585) was 7.211 and the “GoB hCB1” value (Log [Compound] (M) -6.72585) was 12.2902. For the same molecule, the “Gi1 hCB1” value (Log [Compound] (M) -7.14267) was 2.849, the “GoB hCB1” value (Log [Compound] (M) -7.14267) was 6.553 and the “Gi1 hCB1” value (Log [Compound] (M) -7.55284) was 1.862. The “GoB hCB1” value (Log [Compound] (M) -7.55284) was 3.478, the “Gi1 hCB1” value (Log [Compound] (M) -8) was 1.7386 and the “GoB hCB1” value (Log [Compound] (M) -8) was 4.539. The “Gi1 hCB1” value (Log [Compound] (M) -8.22186) was 1.384, the “GoB hCB1” value (Log [Compound] (M) -8.22186) was -0.5679 and the “Gi1 hCB1” value (Log [Compound] (M) -8.39794) was 3.142. For the same molecule, the “GoB hCB1” value (Log [Compound] (M) -8.39794) was 1.554, the “Gi1 hCB1” value (Log [Compound] (M) -8.68787) was 2.895 and the “GoB hCB1” value (Log [Compound] (M) -8.68787) was -1.036. For the same molecule, the “Gi1 hCB1” value (Log [Compound] (M) -9.15521) was 0.4282, the “GoB hCB1” value (Log [Compound] (M) -9.15521) was -2.079 and the “Gi1 hCB1” value (Log [Compound] (M) -9.61989) was 2.402. For the same molecule, the “GoB hCB1” value (Log [Compound] (M) -9.61989) was 0.2413, the “Gi1 hCB1” value (Log [Compound] (M) -10.0969) was 1.754 and the “GoB hCB1” value (Log [Compound] (M) -10.0969) was 3.298. The “Gi1 hCB1” value (Log [Compound] (M) -10.5529) was 4.329, the “GoB hCB1” value (Log [Compound] (M) -10.5529) was 1.32 and the “Gi1 hCB1” value (Log [Compound] (M) -11.0177) was 1.137. The “GoB hCB1” value (Log [Compound] (M) -11.0177) was 2.867, the “Gi1 hCB1” value (Log [Compound] (M) -11.4949) was 1.492 and the “GoB hCB1” value (Log [Compound] (M) -11.4949) was 0.4571. The “Gi1 hCB1” value (Log [Compound] (M) -11.9208) was 0.7057, the “GoB hCB1” value (Log [Compound] (M) -11.9208) was 3.784 and the “Gi1 hCB1” value (Log [Compound] (M) -12.3979) was 3.419. For the same molecule, the “GoB hCB1” value (Log [Compound] (M) -12.3979) was 6.338, the “Gi1 hCB1” value (Log [Compound] (M) -12.8861) was 4.113 and the “GoB hCB1” value (Log [Compound] (M) -12.8861) was 5.3306. For the same molecule, the “Gi1 hCB1” value (Log [Compound] (M) -13) was -0.9593 and 2.509, the “GoB hCB1” value (Log [Compound] (M) -13) was 4.899 and 2.867 and the “pEC50 [95% CI]” value (hCB1 Gi1) was 5.5 [5.4 – 5.6]. The “Emax [95% CI]” value (hCB1 Gi1) was 89 [84 – 94], the “pEC50 [95% CI]” value (hCB1 GoB) was 4.7 [4.1 – 5.4] and the “Emax [95% CI]” value (hCB1 GoB) was 152 [94 – 208]. For the same molecule, the EC50 (hCB1 Gi1) was 3.03 µM and the EC50 (hCB1 GoB) was 19.8 µM.
